pEC50: −log10 of the molar value.
System: NL-RLuc virus (recombinant NL4-3 HIV with Renilla Luciferase gene)
Test: Inhibition of HIV replication (NL-RLuc virus in MT-2 cells, luciferase readout)
Type: cell-based, Human immunodeficiency virus (HIV)
Conditions: MT2, 120 h
Text: Inhibition of HIV Replication:
A recombinant NL-RLuc proviral clone was constructed in which a section of the nef gene form NL4-3 was replaced with the Renilla Luciferase gene. This virus is fully infectious and can undergo multiple cycles of replication in cell culture. In addition, the luciferous reporter provides a simple and easy method for quantitating the extent of virus growth and consequently, the antiviral activity of test compounds. The plasmid pNLRLuc contains the proviral NL-Rluc DNA cloned into pUC18 at the PvuII site. The NL-RLuc virus was prepared by transfection of 293T cells with the plasmid pNLRLuc. Transfections were performed using the LipofectAMINE PLUS kit form Invitrogen (Carlsbad, Calif.) according to the manufacturer and the virus generated was titered in MT-2 cells. For susceptibility analyses, the titrated virus was used to infect MT-2 cells in the presence of compound, and after 5 days of incubation, cells were processed and quantitated for virus growth by the amount of expressed luciferase. Assay media was RPMI 1640 supplemented with 10% heat inactivated fetal bovine serum (FBS), 100 units/ml penicillin G/100 units/ml streptomycin, 10 mM HEPES buffer pH 7.55 and 2 mM L-glutamine. The results form at least 2 experiments were used to calculate the EC50 values. Luciferase was quantitated using the Dual Luciferase kit form Promega (Madison, Wis.). Susceptibility of viruses to compounds was determined by incubation in the presence of serial dilutions of the compound. The 50% effective concentration (EC50) was calculated by using the exponential form of the median effect equation where (Fa)=1/[1+(ED50/drug conc.)^m](Johnson V A, Byington R T. Infectivity Assay. In Techniques in HIV Research. ed. Aldovini A, Walker B D. 71-76. New York: Stockton Press. 1990).

| Structure (SMILES) | pEC50 |
| --- | --- |
| Cc1nc(C)c([C@H](OC(C)(C)C)C(=O)O)c(N2CCC(C)(C)CC2)c1-c1ccc2c(c1)CCN(c1nccc(N3CCS(=O)(=O)CC3)n1)C2 [Example 46, (S)-2-(tert-Butoxy)-2-(4-(4,4-dimethylpiperidin-1-yl)-5-(2-(4-(1,1-dioxidothiomorpholino)pyrimidin-2-yl)-1,2,3,4-tetrahydroisoquinolin-6-yl)-2,6-dimethylpyridin-3-yl)acetic Acid] | 8.05 |
| Cc1nc(C)c([C@H](OC(C)(C)C)C(=O)O)c(N2CCC(C)(C)CC2)c1-c1ccc2c(c1)CCN(c1cccc(F)n1)C2 [Example 94, (S)-2-(tert-Butoxy)-2-(4-(4,4-dimethylpiperidin-1-yl)-5-(2-(6-fluoropyridin-2-yl)-1,2,3,4-tetrahydroisoquinolin-6-yl)-2,6-dimethylpyridin-3-yl)acetic Acid] | 8.40 |
| Cc1nc(C)c([C@H](OC(C)(C)C)C(=O)O)c(N2CCC(C)(C)CC2)c1-c1ccc2c(c1)CCN(c1nccc(N3C4COCC3COC4)n1)C2 [Example 33, (2S)-2-(tert-Butoxy)-2-[4-(4,4-dimethylpiperidin-1-yl)-5-[2-(4-{3,7-dioxa-9-azabicyclo[3.3.1]nonan-9-yl}pyrimidin-2-yl)-1,2,3,4-tetrahydroisoquinolin-6-yl]-2,6-dimethylpyridin-3-yl]acetic Acid] | 8.30 |
| Cc1nc(C)c([C@H](OC(C)(C)C)C(=O)O)c(N2CCC(C)(C)CC2)c1-c1ccc2c(c1)CCN(c1ncc(F)c(N3CCOCC3)n1)C2 [Example 38, (2S)-2-(tert-Butoxy)-2-[4-(4,4-dimethylpiperidin-1-yl)-5-{2-[5-fluoro-4-(morpholin-4-yl)pyrimidin-2-yl]-1,2,3,4-tetrahydroisoquinolin-6-yl}-2,6-dimethylpyridin-3-yl]acetic Acid] | 8.52 |
| Cc1nc(C)c([C@H](OC(C)(C)C)C(=O)O)c(N2CCC(C)(C)CC2)c1-c1ccc2c(c1)CCN(c1nccc(N3C4CCCC3COC4)n1)C2 [Example 35, (2S)-2-(tert-Butoxy)-2-[4-(4,4-dimethylpiperidin-1-yl)-2,6-dimethyl-5-[2-(4-{3-oxa-9-azabicyclo[3.3.1]nonan-9-yl}pyrimidin-2-yl)-1,2,3,4-tetrahydroisoquinolin-6-yl]pyridin-3-yl]acetic Acid] | 8.52 |
| Cc1cc(N2CCOCC2)nc(N2CCc3cc(-c4c(C)nc(C)c([C@H](OC(C)(C)C)C(=O)O)c4N4CCC(C)(C)CC4)ccc3C2)n1 [Example 37, (2S)-2-(tert-Butoxy)-2-[4-(4,4-dimethylpiperidin-1-yl)-2,6-dimethyl-5-{2-[4-methyl-6-(morpholin-4-yl)pyrimidin-2-yl]-1,2,3,4-tetrahydroisoquinolin-6-yl}pyridin-3-yl]acetic Acid] | 9.00 |
| Cc1nc(C)c([C@H](OC(C)(C)C)C(=O)O)c(N2CCC(C)(C)CC2)c1-c1ccc2c(c1)CCN(c1nccc(N3C[C@@H](C)O[C@@H](C)C3)n1)C2 [Example 28, (2S)-2-(tert-Butoxy)-2-[5-(2-{4-[(2R,6S)-2,6-dimethylmorpholin-4-yl]pyrimidin-2-yl}-1,2,3,4-tetrahydroisoquinolin-6-yl)-4-(4,4-dimethylpiperidin-1-yl)-2,6-dimethylpyridin-3-yl]acetic Acid] | 8.70 |
| Cc1nc(C)c([C@H](OC(C)(C)C)C(=O)O)c(N2CCC(C)(C)CC2)c1-c1ccc2c(c1)CCN(c1ncc(F)cc1F)C2 [Example 72, (S)-2-(tert-Butoxy)-2-(5-(2-(3,5-difluoropyridin-2-yl)-1,2,3,4-tetrahydroisoquinolin-6-yl)-4-(4,4-dimethylpiperidin-1-yl)-2,6-dimethylpyridin-3-yl)acetic Acid] | 8.10 |
| Cc1cccc(Cl)c1CN1CCc2cc(-c3c(NCCN4CCOCC4)nc(C)c([C@H](OC(C)(C)C)C(=O)O)c3N3CCC(C)(C)CC3)ccc2C1 [Example 5, (S)-2-(tert-Butoxy)-2-(5-(2-(2-chloro-6-methylbenzyl)-1,2,3,4-tetrahydroisoquinolin-6-yl)-4-(4,4-dimethylpiperidin-1-yl)-2-methyl-6-((2-morpholinoethyl)amino)pyridin-3-yl)acetic Acid] | 8.70 |
| Cc1nc(C)c([C@H](OC(C)(C)C)C(=O)O)c(N2CCC(C)(C)CC2)c1-c1ccc2c(c1)CCN(c1cc(N3CCOCC3)ncn1)C2 [Example 119, (S)-2-(tert-Butoxy)-2-(4-(4,4-dimethylpiperidin-1-yl)-2,6-dimethyl-5-(2-(6-morpholinopyrimidin-4-yl)-1,2,3,4-tetrahydroisoquinolin-6-yl)pyridin-3-yl)acetic Acid] | 8.30 |
| Cc1nc(C)c([C@H](OC(C)(C)C)C(=O)O)c(N2CCC(C)(C)CC2)c1-c1ccc2c(c1)CCN(c1nccc(N3C4CCC3CN(C)C4)n1)C2 [Example 43, (2S)-2-(tert-Butoxy)-2-[4-(4,4-dimethylpiperidin-1-yl)-2,6-dimethyl-5-[2-(4-{3-methyl-3,8-diazabicyclo[3.2.1]octan-8-yl}pyrimidin-2-yl)-1,2,3,4-tetrahydroisoquinolin-6-yl]pyridin-3-yl]acetic Acid] | 8.52 |
| CCOc1nc(N2CCOCC2)nc(N2CCc3cc(-c4c(C)nc(C)c([C@H](OC(C)(C)C)C(=O)O)c4N4CCC(C)(C)CC4)ccc3C2)n1 [Example 59, (S)-2-(tert-Butoxy)-2-(4-(4,4-dimethylpiperidin-1-yl)-5-(2-(4-ethoxy-6-morpholino-1,3,5-triazin-2-yl)-1,2,3,4-tetrahydroisoquinolin-6-yl)-2,6-dimethylpyridin-3-yl)acetic Acid] | 8.52 |
| CC1(C)CCN(c2c(-c3ccc4c(c3)CCN(c3nccc(N5CCOCC5)n3)C4)c(CN3CCC4(CCC4)CC3)nc(Cl)c2[C@H](OC(C)(C)C)C(=O)O)CC1 [Example 150, (S)-2-(6-((7-Azaspiro[3.5]nonan-7-yl)methyl)-2-chloro-4-(4,4-dimethylpiperidin-1-yl)-5-(2-(4-morpholinopyrimidin-2-yl)-1,2,3,4-tetrahydroisoquinolin-6-yl)pyridin-3-yl)-2-(tert-butoxy)acetic Acid] | 9.52 |
| Cc1nc(C)c([C@H](OC(C)(C)C)C(=O)O)c(N2CCC(C)(C)CC2)c1-c1ccc2c(c1)CCN(c1cnnc(N3CCOCC3)c1)C2 [Example 73, (S)-2-(tert-Butoxy)-2-(4-(4,4-dimethylpiperidin-1-yl)-2,6-dimethyl-5-(2-(6-morpholinopyridazin-4-yl)-1,2,3,4-tetrahydroisoquinolin-6-yl)pyridin-3-yl)acetic Acid] | 7.16 |
| Cc1nc(C)c([C@H](OC(C)(C)C)C(=O)O)c(N2CCC(C)(C)CC2)c1-c1ccc2c(c1)CCN(c1nccc(N3C[C@@H](C)N(C)[C@@H](C)C3)n1)C2 [Example 41, (2S)-2-(tert-Butoxy)-2-[4-(4,4-dimethylpiperidin-1-yl)-2,6-dimethyl-5-(2-{4-[(3R,5S)-3,4,5-trimethylpiperazin-1-yl]pyrimidin-2-yl}-1,2,3,4-tetrahydroisoquinolin-6-yl)pyridin-3-yl]acetic Acid] | 8.52 |
| CCC(C)(C)O[C@H](C(=O)O)c1c(C)ncc(-c2ccc3c(c2)CCN(Cc2ccc(F)cc2C)C3)c1N1CCC(C)(C)CC1 [Example 54, (2S)-2-[4-(4,4-Dimethylpiperidin-1-yl)-5-{2-[(4-fluoro-2-methylphenyl)methyl]-1,2,3,4-tetrahydroisoquinolin-6-yl}-2-methylpyridin-3-yl]-2-[(2-methylbutan-2-yl)oxy]acetic Acid] | 7.92 |
| Cc1nc(C)c([C@H](OC(C)(C)C)C(=O)O)c(N2CCC(C)(C)CC2)c1-c1ccc2c(c1)CCN(c1nccc(N3CCN4CCC3CC4)n1)C2 [Example 44, (2S)-2-(tert-Butoxy)-2-{5-[2-(4-{1,4-diazabicyclo[3.2.2]nonan-4-yl}pyrimidin-2-yl)-1,2,3,4-tetrahydroisoquinolin-6-yl]-4-(4,4-dimethylpiperidin-1-yl)-2,6-dimethylpyridin-3-yl}acetic Acid] | 7.57 |
| Cc1nc(C)c([C@H](OC(C)(C)C)C(=O)O)c(N2CCC(C)(C)CC2)c1-c1ccc2c(c1)CCN(c1cc(N3CCC(C(C)(C)O)CC3)ncc1F)C2 [Example 104, (S)-2-(tert-Butoxy)-2-(4-(4,4-dimethylpiperidin-1-yl)-5-(2-(5-fluoro-2-(4-(2-hydroxypropan-2-yl)piperidin-1-yl)pyridin-4-yl)-1,2,3,4-tetrahydroisoquinolin-6-yl)-2,6-dimethylpyridin-3-yl)acetic Acid] | 8.00 |
| Cc1cccc(Cl)c1CN1CCc2cc(-c3c(NCCN(C)C)nc(C)c([C@H](OC(C)(C)C)C(=O)O)c3N3CCC(C)(C)CC3)ccc2C1 [Example 3, (S)-2-(tert-Butoxy)-2-(5-(2-(2-chloro-6-methylbenzyl)-1,2,3,4-tetrahydroisoquinolin-6-yl)-6-((2-(dimethylamino)ethyl)amino)-4-(4,4-dimethylpiperidin-1-yl)-2-methylpyridin-3-yl)acetic Acid] | 8.30 |
| Cc1cccc(Cl)c1CN1CCc2cc(-c3c(NCCCN4CCN(C)CC4)nc(C)c([C@H](OC(C)(C)C)C(=O)O)c3N3CCC(C)(C)CC3)ccc2C1 [Example 11] | 8.70 |
